Experiments:
Type in all cases: cell-based
[1] = target: T1, human TLR7 (Homo sapiens, UniProt Q9NYK1); experiment: TLR7 inhibition reporter assay (HEK-Blue cells, SEAP reporter); conditions: HEK-Blue cells overexpressing human TLR7; stimulated with gardiquimod 7.5 μM; SEAP read after 22 hour; dose range 0.05 nM-50 μM
T1 construct: host or cells: HEK-Blue cells
T1 sequence (Q9NYK1 27-1049): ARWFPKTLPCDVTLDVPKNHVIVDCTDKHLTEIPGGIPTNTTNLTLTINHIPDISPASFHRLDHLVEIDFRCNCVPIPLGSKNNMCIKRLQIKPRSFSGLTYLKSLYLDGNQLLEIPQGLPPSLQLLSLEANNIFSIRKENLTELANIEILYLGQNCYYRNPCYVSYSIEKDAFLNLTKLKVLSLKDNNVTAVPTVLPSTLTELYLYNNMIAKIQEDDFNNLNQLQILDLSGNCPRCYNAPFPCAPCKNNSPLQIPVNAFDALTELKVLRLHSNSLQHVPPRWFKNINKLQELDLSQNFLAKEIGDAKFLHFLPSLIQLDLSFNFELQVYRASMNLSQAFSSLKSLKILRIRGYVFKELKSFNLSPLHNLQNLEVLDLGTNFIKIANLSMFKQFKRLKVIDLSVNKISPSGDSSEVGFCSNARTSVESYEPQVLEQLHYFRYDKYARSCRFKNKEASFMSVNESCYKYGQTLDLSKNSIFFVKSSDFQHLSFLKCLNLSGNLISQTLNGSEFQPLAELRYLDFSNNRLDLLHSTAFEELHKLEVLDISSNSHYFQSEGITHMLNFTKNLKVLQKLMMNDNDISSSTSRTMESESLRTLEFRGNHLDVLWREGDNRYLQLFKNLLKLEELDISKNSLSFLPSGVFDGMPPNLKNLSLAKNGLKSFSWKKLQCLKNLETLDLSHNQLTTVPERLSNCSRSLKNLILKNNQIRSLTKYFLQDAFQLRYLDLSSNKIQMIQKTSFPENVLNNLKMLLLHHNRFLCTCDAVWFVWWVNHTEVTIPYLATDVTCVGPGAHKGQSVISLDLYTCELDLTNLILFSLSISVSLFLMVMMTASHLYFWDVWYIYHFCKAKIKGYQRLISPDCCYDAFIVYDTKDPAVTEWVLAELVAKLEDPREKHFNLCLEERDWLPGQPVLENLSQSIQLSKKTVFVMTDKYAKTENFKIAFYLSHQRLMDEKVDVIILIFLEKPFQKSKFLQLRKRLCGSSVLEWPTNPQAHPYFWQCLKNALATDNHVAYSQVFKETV
Method in brief: (§1)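 HEK-Blue cells with NF-κB/AP-1-driven SEAP pre-treated 30 min with compounds (0.05 nM-50 μM), then stimulated with gardiquimod 7.5 μM (TLR7), R848 15.9 μM (TLR8) or ODN2006 5 nM (TLR9). SEAP read after 22 h at 37° C; % inhibition relative to agonist+DMSO and reference-inhibitor wells.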

[2] = target: T2, human TLR9 (Homo sapiens, UniProt Q9NR96); experiment: TLR9 inhibition reporter assay (HEK-Blue cells, SEAP reporter); conditions: HEK-Blue cells overexpressing human TLR9; stimulated with ODN2006 5 nM; SEAP read after 22 hour; dose range 0.05 nM-50 μM
T2 construct: host or cells: HEK-Blue cells
T2 sequence (Q9NR96 26-1032): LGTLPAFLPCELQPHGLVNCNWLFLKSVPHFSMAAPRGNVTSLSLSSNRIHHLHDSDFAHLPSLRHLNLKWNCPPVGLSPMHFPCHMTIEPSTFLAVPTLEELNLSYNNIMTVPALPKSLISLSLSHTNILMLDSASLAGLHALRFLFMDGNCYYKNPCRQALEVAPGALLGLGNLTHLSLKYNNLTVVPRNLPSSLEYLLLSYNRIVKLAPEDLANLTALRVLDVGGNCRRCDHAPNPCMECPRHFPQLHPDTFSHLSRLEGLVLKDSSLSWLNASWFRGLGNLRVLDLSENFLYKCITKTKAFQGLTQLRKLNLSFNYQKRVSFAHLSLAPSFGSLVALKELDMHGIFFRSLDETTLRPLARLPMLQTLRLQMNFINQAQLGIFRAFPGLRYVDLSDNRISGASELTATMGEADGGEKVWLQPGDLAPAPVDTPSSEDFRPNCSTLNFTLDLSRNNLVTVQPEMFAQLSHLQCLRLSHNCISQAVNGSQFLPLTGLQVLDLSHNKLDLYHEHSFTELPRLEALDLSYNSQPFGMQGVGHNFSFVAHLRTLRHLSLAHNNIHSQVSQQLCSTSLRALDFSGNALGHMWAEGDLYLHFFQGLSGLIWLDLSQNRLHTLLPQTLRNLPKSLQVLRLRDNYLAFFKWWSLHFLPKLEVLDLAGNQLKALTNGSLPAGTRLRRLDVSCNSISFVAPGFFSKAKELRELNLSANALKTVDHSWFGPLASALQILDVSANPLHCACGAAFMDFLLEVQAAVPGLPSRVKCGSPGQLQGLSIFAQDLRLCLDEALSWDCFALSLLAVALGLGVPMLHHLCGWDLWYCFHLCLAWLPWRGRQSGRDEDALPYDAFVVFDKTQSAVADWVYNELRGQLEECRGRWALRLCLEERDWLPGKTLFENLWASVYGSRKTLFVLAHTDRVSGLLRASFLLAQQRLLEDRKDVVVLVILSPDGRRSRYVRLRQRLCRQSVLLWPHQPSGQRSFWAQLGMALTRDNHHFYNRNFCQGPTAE
Method in brief: as §1

[3] = target: T3, human TLR8 (Homo sapiens, UniProt Q9NR97); experiment: TLR8 inhibition reporter assay (HEK-Blue cells, SEAP reporter); conditions: HEK-Blue cells overexpressing human TLR8; stimulated with R848 15.9 μM; SEAP read after 22 hour; dose range 0.05 nM-50 μM
T3 construct: host or cells: HEK-Blue cells
T3 sequence (Q9NR97 27-1041): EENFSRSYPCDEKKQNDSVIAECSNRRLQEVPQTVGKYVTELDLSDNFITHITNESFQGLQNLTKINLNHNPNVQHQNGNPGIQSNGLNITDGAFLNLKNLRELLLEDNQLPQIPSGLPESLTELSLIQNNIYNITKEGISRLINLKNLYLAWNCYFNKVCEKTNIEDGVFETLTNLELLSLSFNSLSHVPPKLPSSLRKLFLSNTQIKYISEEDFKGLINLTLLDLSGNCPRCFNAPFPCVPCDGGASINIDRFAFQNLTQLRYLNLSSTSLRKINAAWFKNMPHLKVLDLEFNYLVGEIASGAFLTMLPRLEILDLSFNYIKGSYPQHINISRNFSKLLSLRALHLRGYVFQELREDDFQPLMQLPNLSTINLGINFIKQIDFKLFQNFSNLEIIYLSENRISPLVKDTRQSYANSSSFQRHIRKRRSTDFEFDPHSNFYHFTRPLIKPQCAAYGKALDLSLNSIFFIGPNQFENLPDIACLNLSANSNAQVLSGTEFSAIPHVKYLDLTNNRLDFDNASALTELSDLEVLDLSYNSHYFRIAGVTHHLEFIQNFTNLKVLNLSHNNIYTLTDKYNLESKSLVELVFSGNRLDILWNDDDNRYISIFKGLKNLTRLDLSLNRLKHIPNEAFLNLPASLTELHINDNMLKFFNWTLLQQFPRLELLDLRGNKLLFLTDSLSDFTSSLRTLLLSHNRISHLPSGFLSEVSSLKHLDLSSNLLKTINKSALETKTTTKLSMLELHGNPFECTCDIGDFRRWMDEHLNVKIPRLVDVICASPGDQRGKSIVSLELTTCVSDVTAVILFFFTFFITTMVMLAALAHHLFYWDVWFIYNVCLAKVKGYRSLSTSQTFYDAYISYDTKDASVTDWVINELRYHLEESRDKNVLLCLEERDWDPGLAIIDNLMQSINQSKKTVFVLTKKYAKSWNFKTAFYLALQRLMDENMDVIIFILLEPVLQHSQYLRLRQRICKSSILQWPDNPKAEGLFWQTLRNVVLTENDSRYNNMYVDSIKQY
Method in brief: as §1

## CNC(=O)c1ccc(-c2cc3cc(-c4ccc(N5CCN(C(C)C)CC5)cc4)ccc3[nH]c2=O)cc1 [Example 54, N-methyl-4-(2-oxo-6-{4-[4-(propan-2-yl)piperazin-1-yl]phenyl}-1,2-dihydroquinolin-3-yl)benzamide]
[1]
  IC50: 13 µM
[2]
  IC50: 0.379 µM
[3]
  IC50: ≥ 50 µM

## CC(C)N1CCN(c2ccc(-c3ccc4[nH]c(=O)c(-c5ccc(C(=O)N6CCOCC6)cc5)cc4c3)cc2)CC1 [Example 55, 3-[4-(morpholine-4-carbonyl)phenyl]-6-{4-[4-(propan-2-yl)piperazin-1-yl]phenyl}-1,2-dihydroquinolin-2-one]
[1]
  IC50: ≥ 50 µM
[2]
  IC50: 0.382 µM
[3]
  IC50: ≥ 50 µM

## CC(C)N1CCN(c2ccc(-c3ccc4[nH]c(=O)c(-c5ccc(N6CCCC6=O)cc5)cc4c3)cc2)CC1 [Example 56, 3-[4-(2-oxopyrrolidin-1-yl)phenyl]-6-{4-[4-(propan-2-yl)piperazin-1-yl]phenyl}-1,2-dihydroquinolin-2-one]
[1]
  IC50: 5.98 µM
[2]
  IC50: 0.4 µM
[3]
  IC50: ≥ 50 µM

## CC(=O)Nc1ccc(-c2cc3cc(-c4ccc(N5CCN(C(C)C)CC5)cc4)ccc3n(C)c2=O)cc1 [Example 57, N-[4-(1-methyl-2-oxo-6-{4-[4-(propan-2-yl)piperazin-1-yl]phenyl}-1,2-dihydroquinolin-3-yl)phenyl]acetamide]
[1]
  IC50: 1.22 µM
[2]
  IC50: 0.615 µM
[3]
  IC50: 0.083 µM

## CC(C)N1CCN(c2ccc(-c3ccc4c(c3)cc(-c3ccccc3)c(=O)n4C)cc2)CC1 [Example 58, 1-methyl-3-phenyl-6-{4-[4-(propan-2-yl)piperazin-1-yl]phenyl}-1,2-dihydroquinolin-2-one]
[1]
  IC50: 32.6 µM
[2]
  IC50: 0.538 µM
[3]
  IC50: 1.39 µM

## CC(C)N1CCN(c2ccc(-c3ccc4[nH]c(=O)c(-c5ccc(C(=O)N(C)C)cc5)cc4c3)cc2)CC1 [Example 60, N,N-dimethyl-4-(2-oxo-6-{4-[4-(propan-2-yl)piperazin-1-yl]phenyl}-1,2-dihydroquinolin-3-yl)benzamide]
[1]
  IC50: ≥ 50 µM
[2]
  IC50: 0.736 µM
[3]
  IC50: ≥ 50 µM

## CC(C)N1CCN(c2ccc(-c3ccc4[nH]c(=O)c(-c5ccc(N6CC[C@@H](O)C6)cc5)cc4c3)cc2)CC1 [Example 61, 3-{4-[(3R)-3-hydroxypyrrolidin-1-yl]phenyl}-6-{4-[4-(propan-2-yl)piperazin-1-yl]phenyl}-1,2-dihydroquinolin-2-one]
[1]
  IC50: ≥ 50 µM
[2]
  IC50: 1.64 µM
[3]
  IC50: ≥ 50 µM

## CC(C)N1CCN(c2ccc(-c3ccc4[nH]c(=O)c(-c5ccc(C(=O)O)cc5)cc4c3)cc2)CC1 [Example 62, 4-(2-oxo-6-{4-[4-(propan-2-yl)piperazin-1-yl]phenyl}-1,2-dihydroquinolin-3-yl)benzoic acid]
[1]
  IC50: ≥ 50 µM
[2]
  IC50: 1.76 µM
[3]
  IC50: ≥ 50 µM

## CCc1c(-c2ccc(OC)c(OC)c2)c(=O)[nH]c2ccc(C3CCN(C4CCN(C(C)C)CC4)CC3)cc12 [Example 63, 3-(3,4-dimethoxyphenyl)-4-ethyl-6-[1′-(propan-2-yl)-[1,4′-bipiperidine]-4-yl]-1,2-dihydroquinolin-2-one]
[1]
  IC50: 2.81 µM
[2]
  IC50: 0.027 µM
[3]
  IC50: 11 µM

## CC(C)N1CCC(N2CCC(c3ccc4[nH]c(=O)c(-c5ccccc5)cc4c3)CC2)CC1 [Example 64, 3-phenyl-6-[1′-(propan-2-yl)-[1,4′-bipiperidine]-4-yl]-1,2-dihydroquinolin-2-one]
[1]
  IC50: 1.48 µM
[2]
  IC50: 0.03 µM
[3]
  IC50: ≥ 50 µM

## CC(C)N1CCC(c2ccc(-c3ccc4[nH]c(=O)c(-c5ccc(S(N)(=O)=O)cc5)cc4c3)cc2)CC1 [Example 65, 4-(2-oxo-6-{4-[1-(propan-2-yl)piperidin-4-yl]phenyl}-1,2-dihydroquinolin-3-yl)benzene-1-sulfonamide]
[1]
  IC50: 0.342 µM
[2]
  IC50: 0.055 µM
[3]
  IC50: 4.87 µM

## CCc1c(-c2ccc(S(C)(=O)=O)cc2)c(=O)[nH]c2ccc(C3CCN(C4CCN(C(C)C)CC4)CC3)cc12 [Example 66, 4-ethyl-3-(4-methanesulfonylphenyl)-6-[1′-(propan-2-yl)-[1,4′-bipiperidine]-4-yl]-1,2-dihydroquinolin-2-one]
[1]
  IC50: 9.97 µM
[2]
  IC50: 0.057 µM
[3]
  IC50: ≥ 50 µM

## CC(C)N1CCC(c2ccc(-c3ccc4[nH]c(=O)c(-c5cccc(NS(C)(=O)=O)c5)cc4c3)cc2)CC1 [Example 67, N-[3-(2-oxo-6-{4-[1-(propan-2-yl)piperidin-4-yl]phenyl}-1,2-dihydroquinolin-3-yl)phenyl]methanesulfonamide]
[1]
  IC50: 0.817 µM
[2]
  IC50: 0.067 µM
[3]
  IC50: ≥ 50 µM

## CC(C)N1CCC(c2ccc(-c3ccc4c(c3)cc(-c3ccc(S(C)(=O)=O)cc3)c(=O)n4C)cc2)CC1 [Example 68, 3-(4-methanesulfonylphenyl)-1-methyl-6-{4-[1-(propan-2-yl)piperidin-4-yl]phenyl}-1,2-dihydroquinolin-2-one]
[1]
  IC50: 7.96 µM
[2]
  IC50: 0.07 µM
[3]
  IC50: 0.475 µM
